Like-named read-outs stand apart in the source and are kept apart here.
Columns and labels:
[1] = tested on: Staphylococcus aureus (ATCC 29213); assay: Checkerboard combination / MIC assay with S. aureus ATCC 29213; type: cell-based; conditions: S. aureus ATCC 29213; for MIC: Staphylococcus aureus, read-out: MIC of antibiotic alone
Protocol: (§1) Colonies were suspended in PBS. The absorbance of each suspension was measured with a spectrophotometer, and then the suspension was adjusted to 1×10^6 CFU/mL. The testing inoculum was prepared within 20 minutes before adding to wells of the test plate. Final cellular density in the checkerboard assays was 5×10^5 CFU/mL.
(§2) The combination effect of antibacterial substances administered together was evaluated by an in vitro checkerboard combination method with Staphylococcus aureus (ATCC 29213) and Staphylococcus aureus (BAA-1717). Ramizol and Chlopam were tested alone in 11 points by two-fold serial titration and in combination with different commercial antibiotics which were tested in a 7-point titration alone and in combination with Ramizol and Chlopam using the checkerboard technique as recommended by the Clinical & Laboratory Standards Institute (CLSI. Methods for Dilution In Antimicrobial Susceptibility Tests for Bacteria That Grow Aerobically; Approved Standard-Eighth Edition. CLSI document M07-A8 (ISBN 1-56238-689-1). Vol. 29 No. 2. Clinical and Laboratory Standards Institute, USA, 2009). The commercial antibiotics were also tested alone. Twenty-four checkerboard tests were performed.
(§3) The starting concentration of Ramizol, Chlopam, and the commercial antibiotics was four fold of the MIC. The testing range for each combination was described in the following summary tables.
(§4) Compound dilutions of Ramizol and Chlopam were performed in 100% DMSO and the final DMSO concentration in all test wells was 2%. Growth control wells also included 2% DMSO. CLSI protocol was followed for medium, inoculum preparation, and endpoint reading. The commercial antibiotics were dissolved and diluted in the CLSI specified diluent. The final inoculum count for each strain was 5×10^5 CFU/mL.
Cefepime, Daptomycin, Linezolid, Mupirocin, Oxacillin and Vancomycin were also tested alone. Each test substance was dissolved and diluted in 100% DMSO or specified solvent. Each test substance dilution (2 μL) was added to 96 μL broth CAMHB. CAMHB seeded with S. aureus ATCC 29213 at 1×10^6 CFU/mL (100 μL) was then added to the plate to generate a final cell count at 5×10^5 CFU/mL.
(§5) Assay plates were incubated and MIC endpoints were read as described in the MIC assay. FIC (Fraction Inhibitory Concentration) and FIC Index (FICI) values for each test condition and the average of FICI values of all pairwise combinations were calculated to determine if synergy or antagonism existed between the two substances. The FIC index was determined by calculating the sum of the ratios of MICs for both substances. Arithmetically, the FIC Index of a combination of Substance 1 and Substance 2 was defined as following: FICI=Σ[FIC(Substance 1)+FIC(Substance 2)]=[(MIC of Substance 1 in combination/MIC of Substance 1 alone)+(MIC of Substance 2 in combination/MIC of Substance 2 alone)]. Synergy is defined as the FICI (Σ)≤0.5; additivity as FICI (Σ)>0.5 to ≤1; indifference as FICI (Σ)>1 to ≤4; antagonism is defined as the FICI (Σ)>4 (Zinner and Blaser, J. Journal of Antimicrobial Chemotherapy (1986), 17, 1-5; Amin, et al BMC Complementary & Alternative Medicine (2015), 15, 59; Zuo, et al. Molecules (2011), 16, 9819-9826).

[2] = tested on: Staphylococcus aureus (BAA-1717); assay: Checkerboard combination / MIC assay with S. aureus BAA-1717 (MRSA); type: cell-based; conditions: for Effect of individual antibiotic combinations: S. aureus BAA-1717
Protocol: as §1, §2, §3, §4
Each test substance was dissolved and diluted in 100% DMSO or specified solvent. Each test substance dilution (2 μL) was added to 96 μL broth CAMHB. CAMHB seeded with S. aureus BAA-1717 at 1×10^6 CFU/mL (100 μL) was then added to the plate to generate a final cell count at 5×10^5 CFU/mL.
as §5

- MIC of antibiotic in combination with Chlopam ([1]; Chlopam 0.003906 μg/mL): 0.5 µg/mL
- MIC of antibiotic in combination with Chlopam ([1]; Chlopam 0.0078125 μg/mL): 0.5 µg/mL
- MIC of antibiotic in combination with Chlopam ([1]; Chlopam 0.015625 μg/mL): 0.5 µg/mL
- MIC of antibiotic in combination with Chlopam ([1]; Chlopam 0.25 μg/mL): 0.25 µg/mL
- MIC of antibiotic in combination with Chlopam ([1]; Chlopam 0.5 μg/mL): 0.016 µg/mL
- MIC of antibiotic in combination with Ramizol ([1]; Ramizol 0.015625 μg/mL): 0.5 µg/mL
- MIC of antibiotic in combination with Ramizol ([1]; Ramizol 0.03125 μg/mL): 0.5 µg/mL
- MIC of antibiotic in combination with Ramizol ([1]; Ramizol 0.0625 μg/mL): 0.5 µg/mL
- MIC of antibiotic in combination with Ramizol ([1]; Ramizol 0.125 μg/mL): 0.5 µg/mL
- MIC of antibiotic in combination with Ramizol ([1]; Ramizol 4 μg/mL): 0.016 µg/mL
- MIC ([1]; ATCC29213, Table 4, checkerboard series with Chlopam): 0.5 µg/mL
- MIC ([1]; ATCC29213, Table 7, checkerboard series with Ramizol): 0.5 µg/mL
- MIC of antibiotic in combination with Chlopam ([2]; Chlopam 0.001953 μg/mL, S. aureus ATCC BAA-1717): 0.5 µg/mL
- MIC of antibiotic in combination with Chlopam ([2]; Chlopam 0.003906 μg/mL, S. aureus ATCC BAA-1717): 0.5 µg/mL
- MIC of antibiotic in combination with Chlopam ([2]; Chlopam 0.0078125 μg/mL, S. aureus ATCC BAA-1717): 0.5 µg/mL
- MIC of antibiotic in combination with Chlopam ([2]; Chlopam 0.015625 μg/mL, S. aureus ATCC BAA-1717): 0.5 µg/mL
- MIC of antibiotic in combination with Chlopam ([2]; Chlopam 0.5 μg/mL, S. aureus ATCC BAA-1717): 0.016 µg/mL
- MIC of antibiotic in combination with Ramizol ([2]; Ramizol 0.015625 μg/mL, S. aureus ATCC BAA-1717): 0.5 µg/mL
- MIC of antibiotic in combination with Ramizol ([2]; Ramizol 0.03125 μg/mL, S. aureus ATCC BAA-1717): 0.5 µg/mL
- MIC of antibiotic in combination with Ramizol ([2]; Ramizol 0.0625 μg/mL, S. aureus ATCC BAA-1717): 0.5 µg/mL
- MIC of antibiotic in combination with Ramizol ([2]; Ramizol 0.125 μg/mL, S. aureus ATCC BAA-1717): 0.5 µg/mL
- MIC of antibiotic in combination with Ramizol ([2]; Ramizol 2 μg/mL, S. aureus ATCC BAA-1717): 0.25 µg/mL
- MIC of antibiotic in combination with Ramizol ([2]; Ramizol 4 μg/mL, S. aureus ATCC BAA-1717): 0.016 µg/mL
- MIC ([2]; Staphylococcus aureus, ATCC BAA-1717 / BAA-1717, Table 4, checkerboard series with Chlopam, S. aureus ATCC BAA-1717, read-out: MIC of antibiotic alone): 0.5 µg/mL
- MIC of antibiotic alone ([2]; Table 7, checkerboard series with Ramizol, S. aureus ATCC BAA-1717): 0.5 µg/mL
Compound: CCCCCCCCCC(=O)N[C@@H](Cc1c[nH]c2ccccc12)C(=O)N[C@H](CC(N)=O)C(=O)N[C@@H](CC(=O)O)C(=O)N[C@@H]1C(=O)NCC(=O)N[C@@H](CCCN)C(=O)N[C@@H](CC(=O)O)C(=O)N[C@H](C)C(=O)N[C@@H](CC(=O)O)C(=O)NCC(=O)N[C@H](CO)C(=O)N[C@@H]([C@H](C)CC(=O)O)C(=O)N[C@@H](CC(=O)c2ccccc2N)C(=O)O[C@@H]1C [Daptomycin]
- FICI of combination with Chlopam ([1]; Chlopam 0.003906 μg/mL + labelled antibiotic at MIC of same cell): 1.0
- FICI of combination with Chlopam ([1]; Chlopam 0.0078125 μg/mL + labelled antibiotic at MIC of same cell): 1.0
- FICI of combination with Chlopam ([1]; Chlopam 0.015625 μg/mL + labelled antibiotic at MIC of same cell): 1.0
- FICI of combination with Chlopam ([1]; Chlopam 0.25 μg/mL + labelled antibiotic at MIC of same cell): 1.0
- FICI of combination with Chlopam ([1]; Chlopam 0.5 μg/mL + labelled antibiotic at MIC of same cell): 1.0
- Effect of individual antibiotic combinations ([1]; Chlopam and daptomycin: 0.003901 and 0.5, 0.0078125 and 0.5, 0.015625 and 0.5, 0.25 and 0.25, 0.5 and 0.016 μg/mL): additive effect
- FICI of combination with Ramizol ([1]; Ramizol 0.015625 μg/mL + labelled antibiotic at MIC of same cell): 1.0
- FICI of combination with Ramizol ([1]; Ramizol 0.03125 μg/mL + labelled antibiotic at MIC of same cell): 1.0
- FICI of combination with Ramizol ([1]; Ramizol 0.0625 μg/mL + labelled antibiotic at MIC of same cell): 1.0
- FICI of combination with Ramizol ([1]; Ramizol 0.125 μg/mL + labelled antibiotic at MIC of same cell): 1.0
- FICI of combination with Ramizol ([1]; Ramizol 4 μg/mL + labelled antibiotic at MIC of same cell): 1.0
- Effect of individual antibiotic combinations ([1]; Ramizol and daptomycin: 0.015625 and 0.5, 0.03125 and 0.5, 0.0625 and 0.5, 0.125 and 0.5, 2 and 0.25, 2 and 0.125, 2 and 0.063, 2 and 0.031, 4 and 0.016 μg/mL): additive effect
- mean FICI of combination with Chlopam ([1]; labelled antibiotic + Chlopam, mean of all pairwise combinations): 1.1
- Effect of the combinations with Ramizol (by mean FICI) ([1]; labelled antibiotic + Ramizol): additive effect
- mean FICI of combination with Ramizol ([1]; labelled antibiotic + Ramizol, mean of all pairwise combinations): 1.0
- FICI of combination with Chlopam ([2]; Chlopam 0.001953 μg/mL + labelled antibiotic at MIC of same cell, S. aureus ATCC BAA-1717): 1.0
- FICI of combination with Chlopam ([2]; Chlopam 0.003906 μg/mL + labelled antibiotic at MIC of same cell, S. aureus ATCC BAA-1717): 1.0
- FICI of combination with Chlopam ([2]; Chlopam 0.0078125 μg/mL + labelled antibiotic at MIC of same cell, S. aureus ATCC BAA-1717): 1.0
- FICI of combination with Chlopam ([2]; Chlopam 0.015625 μg/mL + labelled antibiotic at MIC of same cell, S. aureus ATCC BAA-1717): 1.0
- FICI of combination with Chlopam ([2]; Chlopam 0.5 μg/mL + labelled antibiotic at MIC of same line, S. aureus ATCC BAA-1717): 1.0
- Effect of individual antibiotic combinations ([2]; Chlopam and daptomycin: 0.001953 and 0.5, 0.003901 and 0.5, 0.0078125 and 0.5, 0.015625 and 0.5, 0.5 and 0.016 μg/mL): additive effect
- FICI of combination with Ramizol ([2]; Ramizol 0.015625 μg/mL + labelled antibiotic at MIC of same cell, S. aureus ATCC BAA-1717): 1.0
- FICI of combination with Ramizol ([2]; Ramizol 0.03125 μg/mL + labelled antibiotic at MIC of same cell, S. aureus ATCC BAA-1717): 1.0
- FICI of combination with Ramizol ([2]; Ramizol 0.0625 μg/mL + labelled antibiotic at MIC of same cell, S. aureus ATCC BAA-1717): 1.0
- FICI of combination with Ramizol ([2]; Ramizol 0.125 μg/mL + labelled antibiotic at MIC of same line, S. aureus ATCC BAA-1717): 1.0
- FICI of combination with Ramizol ([2]; Ramizol 2 μg/mL + labelled antibiotic at MIC of same line, S. aureus ATCC BAA-1717): 1.0
- FICI of combination with Ramizol ([2]; Ramizol 4 μg/mL + labelled antibiotic at MIC of same cell, S. aureus ATCC BAA-1717): 1.0
- Effect of individual antibiotic combinations ([2]; Ramizol and daptomycin: 0.015625 and 0.5, 0.03125 and 0.5, 0.0625 and 0.5, 0.125 and 0.5, 2 and 0.25, 4 and 0.016 μg/mL): additive effect
- mean FICI of combination with Chlopam ([2]; labelled antibiotic + Chlopam, mean of all pairwise combinations, S. aureus ATCC BAA-1717): 1.2
- mean FICI of combination with Ramizol ([2]; labelled antibiotic + Ramizol, mean of all pairwise combinations, S. aureus ATCC BAA-1717): 1.1
